According to PubChem BioAssay (NCI):
Where “and” joins values, the source holds several entries; their conditions need not be identical. Equal entries are not always repeated.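 Assay format: 96-well plates, 48-hour exposure. Here, GI50 denotes the concentration required for 50% inhibition of growth. The concentration for full growth arrest is given as TGI.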

Assays:
Test in all cases: NCI-60 cell line screen, 48 h
A498 renal = test system: A498 renal
BT-549 breast = test system: BT-549 breast
MOLT-4 leukemia = test system: MOLT-4 leukemia
OVCAR-4 ovarian = test system: OVCAR-4 ovarian
RPMI-8226 leukemia = test system: RPMI-8226 leukemia
RXF 393 renal = test system: RXF 393 renal
SF-268 CNS = test system: SF-268 CNS
SK-MEL-5 melanoma = test system: SK-MEL-5 melanoma
UACC-257 melanoma = test system: UACC-257 melanoma
UO-31 renal = test system: UO-31 renal

S=c1cc(-c2ccc3c(c2)OCO3)s[nH]1
TGI (A498 renal): > 100 µM
TGI (BT-549 breast): > 100 µM
TGI (MOLT-4 leukemia): > 100 µM
TGI (OVCAR-4 ovarian): > 100 µM
TGI (RPMI-8226 leukemia): > 100 µM
TGI (RXF 393 renal): > 100 µM
TGI (SF-268 CNS): > 100 µM
TGI (SK-MEL-5 melanoma): > 100 µM
TGI (UACC-257 melanoma): > 100 µM
TGI (UO-31 renal): > 100 µM

C\C(=N/N=C1/C(=C\N(C)C)C(=O)NC(=O)N1C)c1ccc(Cl)cc1
TGI (A498 renal): > 100 µM
TGI (BT-549 breast): > 100 µM
TGI (MOLT-4 leukemia): > 100 µM
TGI (OVCAR-4 ovarian): > 100 µM
TGI (RPMI-8226 leukemia): > 100 µM
TGI (RXF 393 renal): > 100 µM
TGI (SF-268 CNS): > 100 µM
TGI (SK-MEL-5 melanoma): > 100 µM
TGI (UACC-257 melanoma): > 100 µM
TGI (UO-31 renal): > 100 µM

O=[N+]([O-])c1ccc2c(c1)C1=NN(c3ccccc3)C(c3ccccc3Br)C1CCC2 (stereo unspecified)
TGI (A498 renal): > 50 µM
TGI (BT-549 breast): 35 µM
TGI (MOLT-4 leukemia): > 50 µM
TGI (OVCAR-4 ovarian): > 50 µM
TGI (RPMI-8226 leukemia): 48.4 µM
TGI (RXF 393 renal): 43 µM
TGI (SF-268 CNS): > 50 µM
TGI (SK-MEL-5 melanoma): > 50 µM
TGI (UACC-257 melanoma): > 50 µM
TGI (UO-31 renal): > 50 µM

COc1cc2c(cc1Cc1c(F)cccc1Cl)nc(-c1c(F)cccc1Cl)n2Cc1c(F)cccc1Cl
TGI (A498 renal): 84 µM
TGI (BT-549 breast): > 100 µM
TGI (MOLT-4 leukemia): > 100 µM
TGI (OVCAR-4 ovarian): > 100 µM
TGI (RPMI-8226 leukemia): > 100 µM
TGI (RXF 393 renal): > 100 µM
TGI (SF-268 CNS): > 100 µM
TGI (SK-MEL-5 melanoma): > 100 µM
TGI (UACC-257 melanoma): > 100 µM
TGI (UO-31 renal): > 100 µM

O=C(Nc1noc(-c2ccccc2)n1)c1ccccc1CNc1noc(-c2ccccc2)n1
TGI (A498 renal): > 100 µM
TGI (BT-549 breast): > 100 µM
TGI (MOLT-4 leukemia): > 100 µM
TGI (OVCAR-4 ovarian): > 100 µM
TGI (RPMI-8226 leukemia): > 100 µM
TGI (RXF 393 renal): > 100 µM
TGI (SF-268 CNS): > 100 µM
TGI (SK-MEL-5 melanoma): > 100 µM
TGI (UACC-257 melanoma): > 100 µM
TGI (UO-31 renal): > 100 µM

CC(=O)OC1CCC2C3CCc4c(C)ccc(OS(=O)(=O)c5ccccc5)c4C3CCC12C (stereo unspecified)
TGI (A498 renal): > 100 µM
TGI (BT-549 breast): > 100 µM
TGI (MOLT-4 leukemia): > 100 µM
TGI (OVCAR-4 ovarian): 88.4 µM
TGI (RPMI-8226 leukemia): > 100 µM
TGI (RXF 393 renal): 94.4 µM
TGI (SF-268 CNS): > 100 µM
TGI (SK-MEL-5 melanoma): 23.1 µM
TGI (UACC-257 melanoma): > 100 µM
TGI (UO-31 renal): 50.1 µM

C1=C\SS/C=C\SS/1
TGI (A498 renal): > 100 µM
TGI (BT-549 breast): > 100 µM
TGI (MOLT-4 leukemia): 78.7 µM
TGI (OVCAR-4 ovarian): > 100 µM
TGI (RPMI-8226 leukemia): 71.8 µM
TGI (RXF 393 renal): 88.1 µM
TGI (SF-268 CNS): > 100 µM
TGI (SK-MEL-5 melanoma): > 100 µM
TGI (UACC-257 melanoma): > 100 µM
TGI (UO-31 renal): > 100 µM

CC(=O)c1ccc2c(c1)CC1(C2)Cc2ccccc2C1=O (stereo unspecified)
TGI (A498 renal): > 100 µM
TGI (BT-549 breast): > 100 µM
TGI (MOLT-4 leukemia): > 100 µM
TGI (OVCAR-4 ovarian): > 100 µM
TGI (RPMI-8226 leukemia): > 100 µM
TGI (RXF 393 renal): > 100 µM
TGI (SF-268 CNS): > 100 µM
TGI (SK-MEL-5 melanoma): 65.3 µM
TGI (UACC-257 melanoma): 50.8 µM
TGI (UO-31 renal): > 100 µM

COC1=C(C)C(=O)c2c(c(COC(N)=O)c3n2CC(OC(C)=O)C3OC(C)=O)C1=O (stereo unspecified)
TGI (A498 renal): 1.34 µM
TGI (BT-549 breast): 1.21 µM
TGI (MOLT-4 leukemia): 2.03 µM
TGI (OVCAR-4 ovarian): 1.03 µM
TGI (RPMI-8226 leukemia): 1.36 µM
TGI (RXF 393 renal): 0.428 µM
TGI (SF-268 CNS): 0.674 µM
TGI (SK-MEL-5 melanoma): 0.392 µM
TGI (UACC-257 melanoma): 0.375 µM
TGI (UO-31 renal): 0.49 µM

[O-]/[N+](=C\c1ccccc1OC(=S)S)c1ccc(Cl)cc1
TGI (A498 renal): > 100 µM
TGI (BT-549 breast): > 100 µM
TGI (MOLT-4 leukemia): > 100 µM
TGI (OVCAR-4 ovarian): 37 µM
TGI (RPMI-8226 leukemia): > 100 µM
TGI (RXF 393 renal): > 100 µM
TGI (SF-268 CNS): 77.7 µM
TGI (SK-MEL-5 melanoma): > 100 µM
TGI (UACC-257 melanoma): > 100 µM
TGI (UO-31 renal): 76.6 µM

CC(C(=O)O)C(C)(O)C(=O)O (stereo unspecified)
TGI (A498 renal): > 100 µM
TGI (BT-549 breast): > 100 µM
TGI (MOLT-4 leukemia): > 100 µM
TGI (OVCAR-4 ovarian): > 100 µM
TGI (RPMI-8226 leukemia): > 100 µM
TGI (RXF 393 renal): > 100 µM
TGI (SF-268 CNS): > 100 µM
TGI (SK-MEL-5 melanoma): > 100 µM
TGI (UACC-257 melanoma): > 100 µM
TGI (UO-31 renal): > 100 µM

COc1ccc(CC2COc3cc(O)cc(O)c3C2=O)cc1O (stereo unspecified)
TGI (A498 renal): > 100 µM
TGI (BT-549 breast): > 100 µM
TGI (MOLT-4 leukemia): > 100 µM
TGI (OVCAR-4 ovarian): > 100 µM
TGI (RPMI-8226 leukemia): 28.5 µM
TGI (RXF 393 renal): > 100 µM
TGI (SF-268 CNS): > 100 µM
TGI (SK-MEL-5 melanoma): > 100 µM
TGI (UACC-257 melanoma): > 100 µM
TGI (UO-31 renal): > 100 µM

C#CCN(Cc1ccc2nc(OC)c(OC)nc2c1)c1cc(OC)c(OC)c(OC)c1
TGI (A498 renal): > 84.5 µM
TGI (BT-549 breast): > 72.4 µM
TGI (MOLT-4 leukemia): 72.6 µM
TGI (OVCAR-4 ovarian): > 46.9 µM
TGI (RPMI-8226 leukemia): 28.3 µM
TGI (RXF 393 renal): > 75.1 µM
TGI (SF-268 CNS): > 94.1 µM
TGI (SK-MEL-5 melanoma): 23.1 µM
TGI (UACC-257 melanoma): > 100 µM
TGI (UO-31 renal): > 89.1 µM

COCCOCCOC1=CC(=O)c2c(O)ccc(O)c2C1=O
TGI (A498 renal): 5.08 µM
TGI (BT-549 breast): 3.2 µM
TGI (MOLT-4 leukemia): 5.56 µM
TGI (OVCAR-4 ovarian): 3.13 µM
TGI (RPMI-8226 leukemia): 4.26 µM
TGI (RXF 393 renal): 3.68 µM
TGI (SF-268 CNS): 6.93 µM
TGI (SK-MEL-5 melanoma): 0.329 µM
TGI (UACC-257 melanoma): 1.43 µM
TGI (UO-31 renal): 3.02 µM

COC(=O)/C(C#N)=C(/NCCN)Nc1ccccc1
TGI (A498 renal): > 100 µM
TGI (BT-549 breast): > 100 µM
TGI (MOLT-4 leukemia): > 100 µM
TGI (OVCAR-4 ovarian): > 100 µM
TGI (RPMI-8226 leukemia): > 100 µM
TGI (RXF 393 renal): > 100 µM
TGI (SF-268 CNS): > 100 µM
TGI (SK-MEL-5 melanoma): > 100 µM
TGI (UACC-257 melanoma): > 100 µM
TGI (UO-31 renal): > 100 µM

C=C(CN(C)C)C(=O)c1ccccc1[N+](=O)[O-]
TGI (A498 renal): > 92 µM
GI50 (BT-549 breast): 24.3 µM
TGI (BT-549 breast): 30.6 µM and 60.4 µM
GI50 (MOLT-4 leukemia): 4.01 µM and 0.606 µM
TGI (MOLT-4 leukemia): 26.7 µM and 5.83 µM
TGI (OVCAR-4 ovarian): 41.1 µM
GI50 (RPMI-8226 leukemia): 15.1 µM and 2.55 µM
GI50 (RXF 393 renal): 1.99 µM
TGI (RXF 393 renal): 30.2 µM and 4.32 µM
GI50 (SF-268 CNS): 20.7 µM
TGI (SF-268 CNS): 51.4 µM and 58.3 µM
GI50 (SK-MEL-5 melanoma): 16.9 µM
TGI (SK-MEL-5 melanoma): 33.4 µM and 39.6 µM
GI50 (UACC-257 melanoma): 14.9 µM
TGI (UACC-257 melanoma): 29.7 µM and 32.8 µM
TGI (UO-31 renal): 32.2 µM

CCOC(=O)/C=C(\C(=O)OCC)n1ccc(=O)n(Cc2cn(COCCOC(C)=O)nn2)c1=O
TGI (A498 renal): > 69.5 µM
TGI (BT-549 breast): 33.2 µM
TGI (MOLT-4 leukemia): 39.3 µM
TGI (OVCAR-4 ovarian): 38.3 µM
TGI (RPMI-8226 leukemia): 55.6 µM
TGI (RXF 393 renal): 38.4 µM
TGI (SF-268 CNS): > 57.6 µM
TGI (SK-MEL-5 melanoma): 47.1 µM
TGI (UACC-257 melanoma): 47.2 µM
TGI (UO-31 renal): 34.1 µM
